Laboratory results: US6482982B1, “Halogenated antituberculosis agents” (University of Sciences of Philadelphia, priority 2001, dated 2002)
In brackets after ≈: the same amount, converted by molar mass.

Experiments:
[1] = tested on: ethambutol-resistant Mycobacterium tuberculosis; test: microbe, parasite or virus in culture; format: cell-based; conditions: read-out: MIC EMB-R
[2] = tested on: rifampin-resistant Mycobacterium tuberculosis (ATCC 35838); test: microbe, parasite or virus in culture; format: cell-based; conditions: ATCC35838, Alamar assay
[3] = tested on: ciprofloxacin-resistant Mycobacterium tuberculosis; test: microbe, parasite or virus in culture; format: cell-based; conditions: read-out: MIC CIP-R
[4] = tested on: isoniazid-resistant Mycobacterium tuberculosis (ATCC 35822); test: microbe, parasite or virus in culture; format: cell-based; conditions: ATCC35822, read-out: MIC INH-R
M. tuberculosis H37Rv = test: MIC determination by Microplate Alamar Blue Assay (MABA) against H37Rv; format: cell-based, Mycobacterium tuberculosis; conditions: Mycobacterium tuberculosis, H37RV; Alamar assay, confirmatory testing alongside drug-resistant strains; read-out: MIC H37Rv
[5] = tested on: kanamycin-resistant Mycobacterium tuberculosis; test: microbe, parasite or virus in culture; format: cell-based; conditions: read-out: MIC KM-R
[6] = tested on: single-drug resistant M. tuberculosis strains; format: cell-based, Mycobacterium tuberculosis; conditions: judged from the ratios in Table 5

Structure (SMILES) | MIC [1] [µg/mL] | MIC [2] [µg/mL] | MIC [3] [µg/mL] | MIC [4] [µg/mL] | MIC (M. tuberculosis H37Rv) [µg/mL] | MIC [5] [µg/mL] | cross-resistance with isoniazid, rifampin, ethambutol, kanamycin or ciprofloxacin [6]
Nc1cc(O)c(C(=O)O)cc1F [Compound 12, 4-Amino-5-fluorosalicylic Acid] | ≤ 3.13 | 6.25 (≈ 36.5 µM) | 6.25 (≈ 36.5 µM) | 25 (≈ 146 µM) | ≤ 3.13 | 6.25 (≈ 36.5 µM) | –
CC(=O)Nc1ccc(/C=N/NC(N)=S)cc1F [Compound 16, 4-Acetamido-3-fluorobenzaldehyde thiosemicarbazone] | 0.2 (≈ 0.787 µM) | ≤ 0.1 | ≤ 0.1 | ≤ 0.1 | ≤ 0.1 | ≤ 0.1 | no cross-resistance
